Source: the METLIN SMRT retention time set (Domingo-Almenara et al. 2019)

test: gradient 5% acetonitrile 3 min, to 50% in 2 min, to 85% in 15 min, held 3 min, 100 µL/min; conditions: column: Zorbax Extend-C18 2.1 x 50 mm; eluents: water / acetonitrile, 0.1% formic acid
Method in brief: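 Retention time was recorded from adduct peaks, which were picked computationally and each inspected manually. Pure standards ran in mixtures of ~100 molecules on HPLC coupled to a quadrupole time-of-flight mass spectrometer, in positive and negative ionization mode, through a Zorbax Extend-C18 column (2.1 × 50 mm, 1.8 μm) at 100 μL/min. Eluents were water and acetonitrile, each with 0.1% formic acid.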

RP-LC retention time [s] | Compound
875 | COc1ccc(-c2cc3nn(CC(=O)NCc4cccc(OC)c4)c(=O)n3c(C)n2)cc1
880 | Cc1onc(-c2cccc(Br)c2)c1C(=O)NCCCOC(C)C
752 | CCOCCCNC(=O)C1(C)Cn2c(ccc2-c2ccco2)C(=O)N1c1ccc(OC)c(OC)c1 (configuration not stated)
692 | Cc1cccc(CNC(=O)CCC(=O)N2CCSc3nc(C)cc(C)c32)c1
672 | Cc1c(-c2ccnc(N3CCN(C)CC3)n2)cnc2nc(SCc3ccccc3)nn12
698 | Cc1ccn2cc(-c3ccc(C)c(NS(=O)(=O)c4ccc(Cl)cc4)c3)nc2c1
670 | CCCNC(=O)C1CCN(c2ccc(SCC(=O)Nc3ccc(F)cc3F)nn2)CC1
564 | Cc1cc(N2CCN(C)CC2)nc2ccc(NC(=S)NCc3ccco3)cc12
867 | Cc1ccc(CNc2c(-c3ccc(Cl)cc3)nc3ncccn23)cc1
613 | CCc1ccc(NC(=O)C(=O)NCC(c2ccc3c(c2)OCO3)N2CCOCC2)cc1 (configuration not stated)
913 | Cc1ccc(C)c(CNC(=O)c2cnc(-c3ccccc3)nc2-c2ccncc2)c1
1010 | CCOC(=O)COC(=O)c1cn(-c2cccc(OC)c2)c(=O)c2ccccc12
615 | CCN1CCCC1CNC(=O)C(C)n1c2ccccc2c2cnn(C)c(=O)c21 (configuration not stated)
887 | Cc1ccc(N2C=C(C(=O)N3CCOCC3)S(=O)(=O)c3ccc(F)cc32)cc1C
593 | CCc1cc(N2CCN(C(=O)c3cc(OC)c(OC)c(OC)c3)CC2)nc2nncn12
730 | C=C1C(=O)OCC2C(C(=O)O)=CC3C(C)C(C)=CC123 (configuration not stated)
710 | Cc1nc(-n2cccc2)sc1C(=O)NCCn1nc(-c2ccco2)ccc1=O
581 | O=C(NCCC1=CCCCC1)C(=O)NCC1CCN(Cc2ccco2)CC1
917 | COc1ccc(CNC(=O)C2CCCN(S(=O)(=O)c3ccc(OC)c(Cl)c3)C2)cc1 (configuration not stated)
745 | O=C(O)c1cnc(NCC2CC2)nc1-c1ccccc1
586 | CC(C)NC(=O)c1ccc2ncnc(N3CCCCC3)c2c1
981 | Cc1ccsc1C(=O)Nc1cccc(OCc2nnc(-c3ccc(F)cc3)o2)c1
636 | O=C(c1cn(-c2cc(N3CCCCC3)ncn2)cn1)N1CCN(c2ccccn2)CC1

RP-LC retention time [s] | Compound
698 | COc1cc(-c2nc3ccc(C)cn3c2Nc2ccc(Cl)cc2)ccc1O
813 | Cc1cc2nn(CC(=O)Nc3cccc(Cl)c3)c(=O)n2c(N2CCCC2)n1
1110 | CC1CCC(NC(=O)c2nnc(-c3ccc(S(=O)(=O)N4CCCCC4)cc3)o2)CC1 (configuration not stated)
740 | O=C1NCCCn2cc(S(=O)(=O)NCc3ccc(OC(F)(F)F)cc3)cc21
699 | CCNC(=O)C1CCCN(S(=O)(=O)c2c[nH]c(C(=O)N3CCCCCC3)c2)C1 (configuration not stated)
844 | COc1cccc(CNC(=O)c2c(C)oc3ccn(C)c(=O)c23)c1
1250 | CCCN1C(=O)COc2ccc(-c3noc(/C=C/c4ccccc4)n3)cc21
970 | CC1(c2ccc3ccccc3c2)CCC(=O)O1 (configuration not stated)
1100 | CCOC(=O)c1c(C)oc2nc(C)nc(NCc3ccc4c(c3)OCO4)c12
959 | CCc1ccc(CNC(=O)C2CCCN(C(=O)c3[nH]c(C)c(C(=O)OC(C)C)c3C)C2)cc1 (configuration not stated)
828 | CCn1c(=O)c(N2CCCC(C(=O)NCCc3ccco3)C2)nc2cccnc21 (configuration not stated)
651 | CCCn1c(CCNC(=O)c2ccc(F)cc2)nc2cccnc21
711 | NC(=O)C1CCN(C(=O)c2ccc3c(c2)CCN3S(=O)(=O)c2ccc(Cl)cc2)CC1
803 | CC(C)n1nnc2cc(C(=O)N(C)CC(=O)Nc3ccc(Br)cc3F)ccc21
625 | CC(=O)NCC(=O)N1CCCn2ccnc2C1C1CCCC1 (configuration not stated)
891 | COc1ccc(C2CC(=O)N(c3cc(C)cc(C)c3)C(=O)C2)cc1OC
711 | Cc1nc(-c2cc3ccccc3nc2N2CCN(c3ccccc3F)CC2)no1
749 | Cc1cccc(N2CCN(C(=O)C3CCN(c4cnc5nccnc5c4)CC3)CC2)c1
948 | Cc1nc2cc(-c3noc(-c4ccccc4Br)n3)ccc2n(C)c1=O
783 | O=C(CN1CCN(Cc2ccccc2F)C1=O)NCc1ccc(N2CCCC2)cc1
1220 | O=C(Nc1ccc(Br)cc1)C1CCCN(c2nccnc2Sc2ccccc2)C1 (configuration not stated)
721 | CN(C)c1ccc(C(=O)NC2CCN(c3cc(-c4cccs4)[nH]n3)C2)cc1 (configuration not stated)
817 | CC1(C(=O)NCc2ccc3c(c2)OCO3)CCN(C(=O)/C=C/c2ccccc2)CC1

RP-LC retention time [s] | Compound
751 | CCOc1ccc(CNC(=O)C2CCCN(C(=O)c3[nH]c(C)c(C(=O)OC)c3C)C2)cc1 (configuration not stated)
1030 | CCCc1ccc(S(=O)(=O)N2CC=C(c3cn(C)c4ncccc34)CC2)cc1
668 | CC1CCN(C(=O)c2cc3c(s2)CCC(C(=O)NCc2ccccn2)C3)CC1 (configuration not stated)
1040 | O=C(CCn1c(=O)sc2ccccc21)N(Cc1ccccc1)Cc1ccccc1
769 | CCn1cnc2ccc(-c3noc(-c4cccc(F)c4)n3)cc21
904 | COc1cc(OC)c(NC(=O)Cn2c(=O)n(-c3ccc(C)cc3)c(=O)c3c2cc(C)n3C)cc1Cl
745 | Cc1ccc(NC(=O)N2CCC3(C2)C(=O)Nc2ccccc23)cc1 (configuration not stated)
609 | O=C(CCNS(=O)(=O)c1ccc(Cl)cc1)N1CCN(c2ccccn2)CC1
596 | O=C(C1CCC1)N1CCCC(Cc2nncn2CC2CC2)C1 (configuration not stated)
863 | COc1ccc(S(=O)(=O)N2CCC(OCc3noc(C4CCCO4)n3)CC2)cc1 (configuration not stated)
658 | COc1cc(C(=O)Nc2cccc(-c3cn4ccsc4n3)c2)c([N+](=O)[O-])cc1OC
672 | Nc1ncnc2c1cnn2C1CCCCC1
659 | CCCN(Cc1ccc(F)cc1)Cc1cc(=O)n2cc(Cl)ccc2n1
623 | COCC1CN(S(=O)(=O)Cc2cccc(F)c2)CC12CCNCC2 (configuration not stated)
556 | Cc1cc(N2CCN(C)CC2)nc2ccc(NC(=O)CCC(=O)NCCC(C)C)cc12
662 | COCCN1CCn2cc(S(=O)(=O)Nc3ccc(OC)cc3)cc2C1=O
995 | CCOc1ccccc1CNS(=O)(=O)c1ccc(-c2c(C)noc2C)cc1
618 | Cc1ccccc1CC(=O)NCc1ccc2c(c1)ncn2C(C)C
672 | Cc1cc(C)c(CN2CCC(N3CCN(Cc4nc(C)no4)C3=O)C2)c(C)c1 (configuration not stated)
767 | CCOc1ccc(NC(=O)c2cnc(N3CCN(c4ccc(OC)cc4)CC3)nc2N)cc1
786 | CN(CC1CCOCC1)S(=O)(=O)Cc1ccccc1F
